Here are results for 22 compounds from ChEMBL document CHEMBL2331218, “Synthesis, biological evaluation, 3D-QSAR studies of novel aryl-2H-pyrazole derivatives as telomerase inhibitors” (Bioorg Med Chem Lett, 2013).

Assay [1] concerns SGC-7901. Description: Anticancer activity against human SGC7901 cells assessed as cell survival measured after 48 hrs by MTT assay. It counts as functional, cell-based. The conditions noted are these: SGC-7901, 48 h.
Assay [2] deals with B16-F10. Description: Anticancer activity against mouse B16F10 cells assessed as cell survival measured after 48 hrs by MTT assay. It is filed as functional, cell-based. The conditions noted are these: B16-F10, 48 h. In general terms: Formazan colour is commonly taken as a measure of viable cells.
In assay [3] the target is Telomerase reverse transcriptase (Homo sapiens, UniProt O14746). As to the kind of experiment: Inhibition of telomerase in human SGC7901 cells by TRAP assay. It is filed as cell-based, SGC-7901.
Sequence of Telomerase reverse transcriptase (O14746 whole entry): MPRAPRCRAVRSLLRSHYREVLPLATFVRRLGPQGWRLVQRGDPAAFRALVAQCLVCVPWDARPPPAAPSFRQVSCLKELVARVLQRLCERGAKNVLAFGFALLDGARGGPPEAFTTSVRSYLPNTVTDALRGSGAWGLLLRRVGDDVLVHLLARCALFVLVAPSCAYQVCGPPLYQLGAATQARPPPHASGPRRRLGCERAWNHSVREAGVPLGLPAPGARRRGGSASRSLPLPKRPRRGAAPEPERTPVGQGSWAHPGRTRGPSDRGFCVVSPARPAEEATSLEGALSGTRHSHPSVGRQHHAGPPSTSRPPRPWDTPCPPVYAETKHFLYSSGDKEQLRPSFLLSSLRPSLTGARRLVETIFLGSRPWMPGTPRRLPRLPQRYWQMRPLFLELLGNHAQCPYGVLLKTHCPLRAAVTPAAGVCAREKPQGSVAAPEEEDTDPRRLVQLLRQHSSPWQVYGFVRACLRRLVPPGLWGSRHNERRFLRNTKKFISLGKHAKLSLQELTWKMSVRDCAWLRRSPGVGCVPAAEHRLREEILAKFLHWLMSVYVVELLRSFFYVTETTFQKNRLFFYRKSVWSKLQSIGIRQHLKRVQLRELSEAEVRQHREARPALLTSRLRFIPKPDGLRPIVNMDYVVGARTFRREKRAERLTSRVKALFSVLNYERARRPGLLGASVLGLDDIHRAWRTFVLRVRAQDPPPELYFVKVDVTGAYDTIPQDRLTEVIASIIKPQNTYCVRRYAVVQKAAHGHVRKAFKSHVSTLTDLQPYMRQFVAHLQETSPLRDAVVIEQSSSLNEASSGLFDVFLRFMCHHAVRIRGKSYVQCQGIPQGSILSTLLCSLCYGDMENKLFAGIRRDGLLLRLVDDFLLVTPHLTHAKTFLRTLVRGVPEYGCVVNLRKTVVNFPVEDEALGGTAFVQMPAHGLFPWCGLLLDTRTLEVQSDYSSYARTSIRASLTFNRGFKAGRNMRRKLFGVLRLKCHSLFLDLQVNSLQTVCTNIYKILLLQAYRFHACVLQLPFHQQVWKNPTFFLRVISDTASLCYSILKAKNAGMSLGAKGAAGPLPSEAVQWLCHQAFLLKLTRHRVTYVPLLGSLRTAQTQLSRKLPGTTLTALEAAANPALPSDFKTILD

With `CC(=O)N1N=C(c2ccc([N+](=O)[O-])cc2)CC1c1ccc2c(c1)OCCO2` (stereo not given), the IC50 was 70 µM in assay [1], 57.8 µM in assay [2] and 37.4 µM in assay [3].

`CC(=O)N1N=C(c2ccccc2)CC1c1ccc2c(c1)OCCO2` (stereo not given): the figures for the half-maximal inhibitory concentration (IC50) in assay [1], in assay [2] and in assay [3] were 50.2 µM, 39.5 µM and 18.5 µM, respectively.

As to `CC(=O)N1N=C(c2ccc(Br)cc2)CC1c1ccc2c(c1)OCCCO2` (stereo not given), the IC50 in assay [2] came to 97 µM; in assay [3] it was 76.4 µM.

Take `COc1ccc(C2=NN(C(C)=O)C(c3ccc4c(c3)OCCCO4)C2)cc1` (stereo not given): the values for the IC50 in assay [1], in assay [2] and in assay [3] were 94 µM, 85.3 µM and 46.7 µM, respectively.

Compound `CC(=O)N1N=C(c2ccc(F)cc2)CC1c1ccc2c(c1)OCCCO2` (stereo not given) showed a half-maximal inhibitory concentration (IC50) in assay [3] of 83.6 µM.

Consider `CC(=O)N1N=C(c2ccc([N+](=O)[O-])cc2)CC1c1ccc2c(c1)OCCCO2` (stereo not given), for which the half-maximal inhibitory concentration (IC50) in assay [3] came to 93.2 µM.

As to `CC(=O)N1N=C(c2ccc(F)cc2)CC1c1ccc2c(c1)OCCO2` (stereo not given), the half-inhibitory concentration (IC50) in assay [1] was 68.4 µM; in assay [2], 53.1 µM; in assay [3], 25.7 µM.

In the case of `CC(=O)N1N=C(c2ccccc2)CC1c1ccc2c(c1)OCO2` (stereo not given), the concentration for half-maximal inhibition (IC50) in assay [1] was determined as 25.7 µM; in assay [2], 14 µM; in assay [3], 3.4 µM.

Turning to `CC(=O)N1N=C(c2ccc(Br)cc2)CC1c1ccc2c(c1)OCO2` (stereo not given), the values for the half-maximal inhibitory concentration (IC50) in assay [1], in assay [2] and in assay [3] were 30.1 µM, 18.9 µM and 6.2 µM, respectively.

For `O=c1[nH]cc(F)c(=O)[nH]1` [FLUOROURACIL], the IC50 in assay [1] turned out to be 46.4 µM; in assay [2], 21.4 µM.

For the compound `COc1ccc(C2=NN(C(C)=O)C(c3ccc4c(c3)OCCO4)C2)cc1` (stereo not given), the IC50 in assay [1] was 45.8 µM; in assay [2], 31.7 µM; in assay [3], 10.6 µM.

Regarding `CC(=O)N1N=C(c2ccc(C)cc2)CC1c1ccc2c(c1)OCCCO2` (stereo not given), the IC50 worked out at 89.7 µM in assay [2] and 54.9 µM in assay [3].

For the compound `CC(=O)N1N=C(c2ccc(Br)cc2)CC1c1ccc2c(c1)OCCO2` (stereo not given), the IC50 is 52.3 µM in assay [1], 44.1 µM in assay [2] and 22.9 µM in assay [3].

On to `CC(=O)N1N=C(c2ccc(F)cc2)CC1c1ccc2c(c1)OCO2` (stereo not given), for which the values for the IC50 in assay [1], in assay [2] and in assay [3] were 40.9 µM, 22.2 µM and 7.3 µM, respectively.

As to `COc1ccc(C2=NN(C(C)=O)C(c3ccc4c(c3)OCO4)C2)cc1` (stereo not given), the IC50 worked out at 18.1 µM in assay [1], 5.34 µM in assay [2] and 0.9 µM in assay [3].

`CC(=O)N1N=C(c2ccc(C)cc2)CC1c1ccc2c(c1)OCO2` (stereo not given): the IC50 stood at 21.2 µM in assay [1], 12.8 µM in assay [2] and 1.3 µM in assay [3].

`CC(=O)N1N=C(c2ccc([N+](=O)[O-])cc2)CC1c1ccc2c(c1)OCO2` (stereo not given): the concentration for half-maximal inhibition (IC50) is 41.9 µM in assay [1], 24.7 µM in assay [2] and 8.7 µM in assay [3].

Take `CC(=O)N1N=C(c2ccc(Cl)cc2)CC1c1ccc2c(c1)OCCO2` (stereo not given): the IC50 in assay [1] stood at 59.5 µM; in assay [2], 47.3 µM; in assay [3] it was 23.8 µM.

For the compound `CC(=O)N1N=C(c2ccc(C)cc2)CC1c1ccc2c(c1)OCCO2` (stereo not given), the IC50 in assay [1] is 49.2 µM; in assay [2] it was 37.9 µM; in assay [3] it was 13.4 µM.

`CC(=O)N1N=C(c2ccc(Cl)cc2)CC1c1ccc2c(c1)OCO2` (stereo not given): the concentration for half-maximal inhibition (IC50) in assay [1] was 35.3 µM; in assay [2], 20.8 µM; in assay [3] it was 6.7 µM.

With `CC(=O)N1N=C(c2ccc(Cl)cc2)CC1c1ccc2c(c1)OCCCO2` (stereo not given), it took 82.6 µM to reach half-maximal inhibition in assay [3] (IC50).

Turning to `CC(=O)N1N=C(c2ccccc2)CC1c1ccc2c(c1)OCCCO2` (stereo not given), it took 68.3 µM to reach half-maximal inhibition in assay [3] (IC50).

As usually defined, the IC50 is the point on the concentration scale where inhibition reaches its midpoint.
